From patent US20110059909A1, “METHODS FOR TREATING INFLAMMATORY DISORDERS” (priority 2004, published 2011)
Entries after “also recorded” stand apart in the source; their conditions may differ.

Assays:
[1] = test system: rat SCI model; test: Histology (H&E) and myelin (LFB-PAS) of spinal cord sections, rat SCI model; type: in vivo
Source text: Sprague-Dawley female rats (225-250 g weight) were purchased (Harlan laboratories, Durham, N.C.) for induction of SCI. All rats were given water and food pellets ad libitum and maintained in accordance with the ‘Guide for the Care and Use of Laboratory Animals’ of the US Department of Health and Human Services (National Institutes of Health, Bethesda, Md., USA). The inventors have used a clinically relevant weight-drop device for the induction of SCI in rats as described earlier (Gruner, 1992). Briefly, rats were anesthetized by intraperitoneal (i.p.) administration of ketamine (80 mg/kg) plus xylazine (10 mg/kg) followed by laminectomy at T12. While the spine was immobilized with a stereotactic device, injury (30 g/cm force) was induced by dropping a weight of 5 gm from a height of 6 cm onto an impounder gently placed on the spinal cord. Sham operated animals underwent laminectomy only. Upon recovery from anesthesia, animals were evaluated neurologically and monitored for food and water intake. However, no prophylactic antibiotics or analgesics were used in order to avoid their possible interactions with the experimental therapy of SCI.
Rats were anesthetized and sacrificed by decapitation.

[2] = test system: neurons; test: Fluorescent TUNEL / NeuN staining of spinal cord sections following SCI; type: in vivo, rat
Description: TUNEL assay was carried out using APOPTAG Fluorescein In Situ Apoptosis Detection Kit (Serological Corporation, Norcross, Ga.) according to manufacturer's protocol. For double labeling, sections were incubated with mouse anti-neuronal nuclei 1:100 (NeuN, Chemicon, USA). Sections were incubated with TRITC conjugated […] 1:100 (Sigma), mounted in mounting media and visualized by fluorescence microscopy.

[3] = test system: ERK1/2; test: ERK1/2 activation at the lesion epicenter following SCI; type: in vivo, rat
Description: The protein concentration of samples was determined with the detergent compatible protein assay reagent (Bio-Rad Laboratories, CA) using bovine serum albumin (BSA) as the standard. Sample was boiled for 3 min with 0.1 volumes of 10% β-mercaptoethanol and 0.5% bromophenol blue mix. Fifty μg of total cellular protein was resolved by electrophoresis on 8 or 12% polyacrylamide gels, electro-transferred to polyvinylidene difluoride (PVDF) filter and blocked with Tween 20 containing Tris-buffered saline (TBST; 10 mM Trizma base-pH 7.4, 1% Tween 20, and 150 mM NaCl) with 5% skim milk. After incubation with antiserum against iNOS (BD PharMingen, CA), rat GalT-2 (Abjent Inc., CA), H-Ras (Upstate Biotechnology, CA), GFAP (Santa Cruz Biotech, CA), or phospho-specific ERK1/2 (Cell signaling Tech Inc., MA), or pIκ-B (Signal Transduction), in PVDF buffer for 2 h at room temperature, the filters were washed 3 times with TBST buffer and then incubated with horseradish peroxidase conjugated anti-rabbit or mouse IgG for 1 h. The membranes were detected by autoradiography using ECL-plus (Amersham Pharmacia Biotech) after washing with TBST buffer.

[4] = cited from earlier work
[5] = test system: rat aortic vascular smooth muscle cells; conditions: cited from earlier work
[6] = test system: primary cultured rat neocortical explants; conditions: cited from earlier work
[7] = test system: primary cultured rat neocortical explants; conditions: cited from earlier work; remark: listed apart in the source
[8] = test system: iNOS; test: iNOS expression at the lesion epicenter following SCI
[9] = test system: TNFα; test: TNFα expression at the lesion epicenter following SCI
[10] = test system: IL-1β; test: IL-1β expression at the lesion epicenter following SCI
[11] = test system: GFAP; test: GFAP expression (reactive astrogliosis) at the lesion epicenter following SCI
[12] = test system: PI-3K; test: PI-3 kinase activity assay; type: cell-based, rat; conditions: exogenous lipid
Description: Cells after stimulation in serum-free DMEM/F-12 were lysed with ice-cold lysis buffer containing 1% (vol/vol) NP-40,100 mM NaCl, 20 mM Tris (pH 7.4), 10 mM iodoacetamide, 10 mM NaF, 1 mM sodium orthovanadate, 1 mM […], 1 μg/ml leupeptin, 1 μg/ml antipain, 1 mg/ml aprotinin, and 1 μg/ml pepstatin A. Lysates were incubated at 4° C. for 15 min, followed by centrifugation at 13,000 g for 15 min. The supernatant was pre-cleared with protein G-Sepharose beads (Pharmacia Biotech) for 1 h at 4° C. followed by the addition of 1 μg/ml p85α monoclonal antibody. After 2 h of incubation at 4° C., protein G-Sepharose beads were added and the resulting mixture was further incubated for 1 h at 4° C. The immunoprecipitates were washed twice with lysis buffer, once with phosphate-buffered saline (PBS), once with 0.5 M LiCl and 100 mM Tris (pH 7.6), once in water, and once in kinase buffer (5 mM MgCl2, 0.25 mM EDTA, 20 mM HEPES, pH 7.4). PI-3kinase activity was determined as already described (Ward et al., 1992; Pahan et al., 1999) using a lipid mixture of 100 μl of 0.1 mg/ml PI and 0.1 mg/ml phosphatidylserine dispersed by sonication in 20 mM HEPES (pH 7.0) and 1 mM EDTA. The reaction was initiated by the addition of 20 of [γ-32P] […]

Q: Which results are given for CCCCCCCCCC(=O)NC(CN1CCOCC1)C(O)c1ccccc1.Cl [PDMP, D-threo-1-Phenyl-2-decanoylamino-3-morpholino-1-propanol.HCl]?
A: Demyelination at the lesion epicenter ([1]; Day 2 and 3 post-SCI): reduced; Tissue necrosis at the lesion epicenter ([1]; Day 2 and 3 post-SCI): reduced; SCI induced white matter vacuolization and tissue necrosis ([1]; PDMP 20 mg/kg i.p. post-SCI, tissue analyzed 24 h post-SCI): markedly decreased; Protection against tissue destruction ([1]; PDMP given 12 h post-SCI, tissue analyzed 24 h post-SCI): substantial amount of protection; Demyelination (LFB staining) ([1]; PDMP treatment until 12 h post-SCI, 24 h post-SCI): attenuated; Apoptosis of neurons (TUNEL/NeuN) ([2]; 24 h post-SCI): provided protection; Effect on neuronal survival in sham operated animals ([2]; sham operated, PDMP 20 mg/kg): no adverse effect; Activated ERK1/2, double immunofluorescence ([3]; 24 h following injury): significantly attenuated; Chronic ERK1/2 activation (immunoblot, pERK/ERK) ([3]; PDMP 20 mg/kg post-SCI): effectively attenuates; Solubility in water [4]: soluble in water; IL-1β stimulated nitric oxide release [5]: increased; Neurite outgrowth [6]: inhibited; GSL biosynthesis [7]: inhibited; iNOS mRNA (real time PCR) and protein expression ([8]; 12 h following SCI): markedly suppressed; iNOS expression, double immunofluorescence ([8]; 24 h post-SCI): significantly reduced; TNFα mRNA levels ([9]; 1 h post-SCI): markedly inhibited; TNFα protein levels, immunofluorescence ([9]; post-SCI (sections extracted 1 h)): significantly suppressed; IL-1β mRNA levels ([10]; 4 h post-SCI): markedly inhibited; IL-1β protein levels, immunofluorescence ([10]; post-SCI (sections extracted 4 h)): significantly suppressed; GFAP, double immunofluorescence ([11]; 24 h post-SCI): significantly reduced; also recorded: significantly attenuated; GFAP mRNA and protein expression ([11]; PDMP 20 mg/kg post-SCI): effectively attenuated

Q: With Lactosylceramide [LacCer] as the compound, how does the “Reversal of DMS-mediated inhibition of PI-3K activation” value [12] read?
A: could not reverse
